Reference: patent US5639729A, “Tripeptides useful in immune and CNS therapy” (Immunobiology Research Institute, Inc., priority 1993, dated 1997)

Assays:
[1] = tested on: insulin-induced ACTH secretion; test: Effect of peptide on insulin-induced ACTH secretion (insulin challenge); assay type: in vivo, Sprague-Dawley rats; details: insulin 0.5 IU/kg intraperitoneally, 30 minutes, rats pretreated with saline by oral gavage or s.c. injection; from 16.8±0.8 pg/ml
Method: As mentioned above, the administration of insulin can be used as a provocative challenge test to determine how an organism responds to stress and how the response can be manipulated. It was shown in FIG. 1 that, in rats, administration of insulin causes an increase in plasma concentrations of ACTH.
Adult male Sprague-Dawley rats were used in these experiments. After an overnight fast, the peptide or saline was administered by oral gavage or by subcutaneous injection to the experimental subjects. Doses of the peptide ranged from 0.1 to 10 mg/kg by the oral route and 0.03 to 3.0 mg/kg by the subcutaneous route. […] all animals were treated with insulin (0.5 IU/kg) and were sacrificed by decapitation 30 minutes later. As above, trunk blood was collected in polypropylene tubes containing 400 μl of 10% EDTA at 4° C. Plasma was separated by centrifugation and stored at -80° C. until being used for ACTH determinations, ACTH concentrations were determined by RIA as described by Nicholson et al, cited above, using antiserum [IgG Corporation] and ^125 I-labelled ACTH [ICN Corporation].

ACTH secretion = test: Actions of insulin on ACTH secretion; assay type: in vivo, Sprague-Dawley rats; details: 30 minutes, fasted male rats
Method: To determine whether a drug can modify stress responses, the stress response itself must be characterized. To accomplish this goal, adult male Sprague-Dawley rats [Charles River, Kingston, N.Y.] were treated with increasing doses of insulin [Humulin, Eli Lilly Co.] ranging from 0.05 to 5 IU/kg or saline intraperitoneally after an overnight fast. Thirty minutes after administering insulin, the animals were sacrificed by decapitation and trunk blood was collected into polypropylene tubes containing 400 μl of 10% EDTA at 4° C. The plasma was separated by centrifugation and stored at -80° C. until being used for ACTH determinations. Plasma concentrations of ACTH were determined by radioimmunoassay using antiserum [IgG Corporation, Nashville, Tenn.] and ^125 I-labelled ACTH [ICN Corporation, Costa Mesa, Calif.] as described by Nicholson et al, Clin. Chem., 30:259-265 (1984).

insulin: insulin [Humulin, Eli Lilly Co.], used as provocative challenge to raise plasma ACTH in rats
plasma ACTH concentrations [1]: approximately 200 pg/ml | plasma ACTH levels (ACTH secretion; insulin 0.05 IU/kg intraperitoneally): not elevated | plasma ACTH concentrations (ACTH secretion; insulin 0.1 IU/kg intraperitoneally): significantly greater than in vehicle treated controls | ACTH responses (ACTH secretion; insulin doses higher than 0.1 IU/kg up to 5 IU/kg intraperitoneally): commensuratively greater ACTH responses
